According to patent publication US20120232062A1, “AZAINDAZOLES TO TREAT FLAVIVIRIDAE VIRUS INFECTION” (EIGER BIOPHARMACEUTICALS, INC., priority 2009, published 2012):
Read-outs that look alike come from different tables or passages of the source.

Test system: HCV genotype 1b
Assay: HCV 1b replicon luciferase assay
Assay type: cell-based
Conditions: Table 1, Huh7 HCV 1b replicon, luciferase reporter, 48 hours, read-out: 1b EC50
How it was run: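 Luminescence (Steady-Glo) served as the replication read-out after 48 h compound exposure of 1b replicon-luciferase Huh7 cells seeded at 10k/well. Dosing used 5-fold serial dilutions, 10 concentrations, top 25 μM final, 0.1% DMSO, duplicates.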

Question: With `Cn1nc(-c2nnc(C3CCCN(CC4CCCCC4)C3)o2)c2ccc(N3CCCCCCC3)nc21` (centres unmarked) [compound 1272] as the molecule, how does the EC50 (Hepatitis C virus, Huh-7, 48 h) read?
Answer: 940 nM

Question: How did the EC50 (Hepatitis C virus, Huh-7, 48 h) turn out when `Cn1nc(-c2nnc(C3CCCN(CC(F)F)C3)o2)c2ccc(N3CCCCCCC3)nc21` (centres unmarked) [compound 1273] was run?
Answer: 4800 nM

Question: For `Cn1nc(C(=O)NC2CCN(CCN3CCCC3)CC2)c2ccc(N3CCCCCCC3)nc21` [compound 1296], which EC50 (Hepatitis C virus, Huh-7, 48 h) is on record?
Answer: 500 nM

Question: `Cn1nc(C(=O)NC2CCN(CCC3CCCCC3)CC2)c2ccc(N3CCCCCCC3)nc21` [compound 1299] was tested. Which EC50 (Hepatitis C virus, Huh-7, 48 h) did it give?
Answer: 310 nM

Question: With `Cn1nc(C(=O)NC2CCN(CC3CC3)CC2)c2ccc(N3CCCCCCC3)nc21` [compound 1300] as the molecule, how does the EC50 read?
Answer: 2700 nM

Question: For `Cn1nc(C(=O)NC2CCN(CCC(F)(F)F)CC2)c2ccc(N3CCCCCCC3)nc21` [compound 1301], which EC50 (Hepatitis C virus, Huh-7, 48 h) is on record?
Answer: 5100 nM

Question: `CC(C)c1ccc(CN(c2ccc3c(C(=O)NC4CCN(CCN5CCCCC5)CC4)nn(C)c3n2)C2CCCCCC2)cc1` [compound 1303] was tested. Which EC50 (Hepatitis C virus, Huh-7, 48 h) did it give?
Answer: 660 nM

Question: For `CC(c1ccncc1)N1CCC(NC(=O)c2nn(C)c3nc(N4CCCCCCC4)ccc23)CC1` (centres unmarked) [compound 1304], which EC50 (Hepatitis C virus, Huh-7, 48 h) is on record?
Answer: 1400 nM

Question: Which EC50 (Hepatitis C virus, Huh-7, 48 h) does the source give for `Cn1nc(C(=O)NC2CCN(CC3CCCC3)CC2)c2ccc(N3CCCCCCC3)nc21` [compound 1305] here?
Answer: 490 nM

Question: How did the EC50 (Hepatitis C virus, Huh-7, 48 h) turn out when `CC(C1CC1)N1CCC(NC(=O)c2nn(C)c3nc(N4CCCCCCC4)ccc23)CC1` (centres unmarked) [compound 1311] was run?
Answer: 970 nM

Question: `CC(c1cccc(C(F)(F)F)c1)N1CCC(NC(=O)c2nn(C)c3nc(N4CCCCCCC4)ccc23)CC1` (centres unmarked) [compound 1312] was tested. Which EC50 (Hepatitis C virus, Huh-7, 48 h) did it give?
Answer: 2700 nM

Question: How did the EC50 (Hepatitis C virus, Huh-7, 48 h) turn out when `Cn1nc(-c2cnc(C(=O)NC3CCCN(CCN4CCCCC4)C3)s2)c2ccc(N3CCCCCCC3)nc21` (centres unmarked) [compound 1316] was run?
Answer: 550 nM

Question: For `Cn1nc(-c2cnc(C(=O)NC3CCCN(CC(F)F)C3)s2)c2ccc(N3CCCCCCC3)nc21` (centres unmarked) [compound 1322], which EC50 (Hepatitis C virus, Huh-7, 48 h) is on record?
Answer: 1100 nM

Question: `Cn1nc(-c2nnc(C3CCN(CC(F)F)CC3)o2)c2ccc(N3CCCCCCC3)nc21` [compound 1323] was tested. Which EC50 (Hepatitis C virus, Huh-7, 48 h) did it give?
Answer: 4400 nM

Question: `Cn1nc(-c2nnc(C3CCCCN3CC3CCCCC3)o2)c2ccc(N3CCCCCCC3)nc21` (centres unmarked) [compound 1324] was tested. Which EC50 (Hepatitis C virus, Huh-7, 48 h) did it give?
Answer: 660 nM

Question: How did the EC50 (Hepatitis C virus, Huh-7, 48 h) turn out when `Cn1nc(-c2nnc(C3CCCCN3CCN3CCCCC3)o2)c2ccc(N3CCCCCCC3)nc21` (centres unmarked) [compound 1326] was run?
Answer: 4800 nM

Question: For `O=C(NC1CCCNC1)c1nn(-c2ccccc2)c2nc(N3CCCCCC3)ccc12` (centres unmarked) [compound 1349], which EC50 (Hepatitis C virus, Huh-7, 48 h) is on record?
Answer: 5000 nM

Question: For `O=C(NC1CCNCC1)c1nn(-c2ccccc2)c2nc(N3CCCCCC3)ccc12` [compound 1350], which EC50 (Hepatitis C virus, Huh-7, 48 h) is on record?
Answer: 3800 nM

Question: Which EC50 (Hepatitis C virus, Huh-7, 48 h) does the source give for `Cn1nc(-c2nnc(C3CCNC3)o2)c2ccc(N3CCCCCCC3)nc21` (centres unmarked) [compound 1363] here?
Answer: 2700 nM

Question: For `Cn1nc(-c2nnc([C@@H]3CCCN3CCN3CCCCC3)o2)c2ccc(N3CCCCCCC3)nc21` [compound 1364], which EC50 (Hepatitis C virus, Huh-7, 48 h) is on record?
Answer: 2200 nM

Question: How did the EC50 (Hepatitis C virus, Huh-7, 48 h) turn out when `Cn1nc(-c2nnc(C3CCN(CC4CCCCC4)C3)o2)c2ccc(N3CCCCCCC3)nc21` (centres unmarked) [compound 1365] was run?
Answer: 2600 nM

Question: `Cn1nc(-c2nnc(C3CCN(CC(F)F)C3)o2)c2ccc(N3CCCCCCC3)nc21` (centres unmarked) [compound 1366] was tested. Which EC50 (Hepatitis C virus, Huh-7, 48 h) did it give?
Answer: 4000 nM

Question: `Cn1nc(-c2nnc(C3CCN(CCN4CCCCC4)C3)o2)c2ccc(N3CCCCCCC3)nc21` (centres unmarked) [compound 1368] was tested. Which EC50 (Hepatitis C virus, Huh-7, 48 h) did it give?
Answer: 4800 nM

Question: With `Cn1nc(-c2nnc(C3CCN(CCN4CCCCC4)CC3)o2)c2ccc(N3CCCCCCC3)nc21` [compound 1373] as the molecule, how does the EC50 (Hepatitis C virus, Huh-7, 48 h) read?
Answer: 630 nM

Question: Which EC50 (Hepatitis C virus, Huh-7, 48 h) does the source give for `CCCCCCNc1ccc2c(C(=O)NC3CCCNC3)nn(-c3cccc(Cl)c3C)c2n1` (centres unmarked) [compound 1378] here?
Answer: 2600 nM

Question: For `C[C@@H]1CCCN1CCN1CCC(NC(=O)c2nn(C)c3nc(N4CCCCCC4)ccc23)CC1` [compound 1424], which EC50 (Hepatitis C virus, Huh-7, 48 h) is on record?
Answer: 790 nM

Question: Which EC50 (Hepatitis C virus, Huh-7, 48 h) does the source give for `COCC1CCCCN1CCN1CCC(NC(=O)c2nn(C)c3nc(N4CCCCCC4)ccc23)CC1` (centres unmarked) [compound 1426] here?
Answer: 450 nM

Question: For `COCC1CCCN1CCCc1nn(C)c2nc(N3CCCCCCC3)ccc12` (centres unmarked) [compound 1453], which EC50 (Hepatitis C virus, Huh-7, 48 h) is on record?
Answer: 2800 nM

Question: Which EC50 (Hepatitis C virus, Huh-7, 48 h) does the source give for `CC1CCCCN1CCCc1nn(C)c2nc(N3CCCCCCC3)ccc12` (centres unmarked) [compound 1454] here?
Answer: 1600 nM

Question: How did the EC50 (Hepatitis C virus, Huh-7, 48 h) turn out when `Cn1nc(CCCN2CC[C@H](O)C2)c2ccc(N3CCCCCCC3)nc21` [compound 1458] was run?
Answer: 3200 nM

Question: For `Cn1nc(CCCN2CCCC(CO)C2)c2ccc(N3CCCCCCC3)nc21` (centres unmarked) [compound 1460], which EC50 (Hepatitis C virus, Huh-7, 48 h) is on record?
Answer: 2700 nM

Question: For `Cn1nc(CCCN2CC=CC2)c2ccc(N3CCCCCCC3)nc21` [compound 1461], which EC50 (Hepatitis C virus, Huh-7, 48 h) is on record?
Answer: 2600 nM

Question: With `CC1CCC(C)N1CCCc1nn(C)c2nc(N3CCCCCCC3)ccc12` (centres unmarked) [compound 1462] as the molecule, how does the EC50 (Hepatitis C virus, Huh-7, 48 h) read?
Answer: 1200 nM

Question: With `Cn1nc(CCCN2CCC[C@@H]2CO)c2ccc(N3CCCCCCC3)nc21` [compound 1464] as the molecule, how does the EC50 (Hepatitis C virus, Huh-7, 48 h) read?
Answer: 2000 nM

Question: For `COC[C@@H]1CCCN1CCCc1nn(C)c2nc(N3CCCCCCC3)ccc12` [compound 1465], which EC50 (Hepatitis C virus, Huh-7, 48 h) is on record?
Answer: 4700 nM

Question: For `Cn1nc(C(=O)NC2CCN(CCN3CCCCC3)CC2)c2ccc(NC3CCCCCCC3)nc21` [compound 1468], which EC50 (Hepatitis C virus, Huh-7, 48 h) is on record?
Answer: 330 nM

Question: How did the EC50 (Hepatitis C virus, Huh-7, 48 h) turn out when `Cn1nc(C(=O)NC2CCN(CC(F)F)CC2)c2ccc(NC3CCCCCCC3)nc21` [compound 1472] was run?
Answer: 1400 nM

Question: How did the EC50 (Hepatitis C virus, Huh-7, 48 h) turn out when `CC(C)CN1CCC(NC(=O)c2nn(C)c3nc(NC4CCCCCCC4)ccc23)CC1` [compound 1473] was run?
Answer: 890 nM

Question: How did the EC50 (Hepatitis C virus, Huh-7, 48 h) turn out when `CCN1CCC(NC(=O)c2nn(C)c3nc(NC4CCCCCCC4)ccc23)CC1` [compound 1474] was run?
Answer: 480 nM

Question: With `Cn1nc(C(=O)NC2CCN(CC3CCOCC3)CC2)c2ccc(NC3CCCCCCC3)nc21` [compound 1476] as the molecule, how does the EC50 (Hepatitis C virus, Huh-7, 48 h) read?
Answer: 570 nM

Question: Which EC50 does the source give for `Cn1nc(C(=O)NC2CCN(CC3CCCCC3)CC2)c2ccc(NC3CCCCCCC3)nc21` [compound 1477] here?
Answer: 530 nM

Question: Which EC50 (Hepatitis C virus, Huh-7, 48 h) does the source give for `Cn1nc(C(=O)NC2CCN(CC3CC3)CC2)c2ccc(NC3CCCCCCC3)nc21` [compound 1478] here?
Answer: 560 nM

Question: With `Cn1nc(C(=O)NC2CCN(CC#N)CC2)c2ccc(NC3CCCCCCC3)nc21` [compound 1479] as the molecule, how does the EC50 (Hepatitis C virus, Huh-7, 48 h) read?
Answer: 920 nM

Question: `CCCn1nc(C(=O)NC2CCN(CCN3CCCCC3)CC2)c2ccc(N3CCCCCC3)nc21` [compound 1486] was tested. Which EC50 (Hepatitis C virus, Huh-7, 48 h) did it give?
Answer: 760 nM

Question: `CC(C)Cn1nc(C(=O)NC2CCN(CCN3CCCCC3)CC2)c2ccc(N3CCCCCC3)nc21` [compound 1487] was tested. Which EC50 (Hepatitis C virus, Huh-7, 48 h) did it give?
Answer: 830 nM

Question: Which EC50 (Hepatitis C virus, Huh-7, 48 h) does the source give for `O=C(NC1CCN(CCN2CCCCC2)CC1)c1nn(CC2CC2)c2nc(N3CCCCCC3)ccc12` [compound 1489] here?
Answer: 550 nM

Question: How did the EC50 (Hepatitis C virus, Huh-7, 48 h) turn out when `Cn1nc(CCCN2C[C@@H](O)[C@@H](O)C2)c2ccc(N3CCCCCCC3)nc21` [compound 1495] was run?
Answer: 4700 nM

Question: Which EC50 (Hepatitis C virus, Huh-7, 48 h) does the source give for `C[C@@H]1CCCN1CCCc1nn(C)c2nc(N3CCCCCCC3)ccc12` [compound 1499] here?
Answer: 4000 nM

Question: `COC[C@@H]1CCCN1CCN1CCC(NC(=O)c2nn(C)c3nc(N4CCCCCC4)ccc23)CC1` [compound 1556] was tested. Which EC50 (Hepatitis C virus, Huh-7, 48 h) did it give?
Answer: 2900 nM

Question: `COCC1CCN(CCN2CCC(NC(=O)c3nn(C)c4nc(N5CCCCCC5)ccc34)CC2)C1` (centres unmarked) [compound 1557] was tested. Which EC50 (Hepatitis C virus, Huh-7, 48 h) did it give?
Answer: 2100 nM

Question: `Cn1nc(C(=O)NC2CCN(CCN3CC[C@@H](O)C3)CC2)c2ccc(N3CCCCCC3)nc21` [compound 1558] was tested. Which EC50 (Hepatitis C virus, Huh-7, 48 h) did it give?
Answer: 3400 nM

Question: Which EC50 (Hepatitis C virus, Huh-7, 48 h) does the source give for `Cn1nc(C(=O)NC2CCN(CCN3CCC[C@H]3CO)CC2)c2ccc(N3CCCCCC3)nc21` [compound 1561] here?
Answer: 3800 nM

Question: How did the EC50 (Hepatitis C virus, Huh-7, 48 h) turn out when `Cn1nc(C(=O)NC2CCN(CCN3CCCC3)CC2)c2ccc(NC3CCCCC3)nc21` [compound 1581] was run?
Answer: 3300 nM

Question: How did the EC50 (Hepatitis C virus, Huh-7, 48 h) turn out when `Cn1nc(C(=O)NC2CCN(C3CCCCC3)CC2)c2ccc(N3CCCCCC3)nc21` [compound 1594] was run?
Answer: 1800 nM

Question: For `CCCN1CCC(NC(=O)c2nn(C)c3nc(N4CCCCCC4)ccc23)CC1` [compound 1596], which EC50 (Hepatitis C virus, Huh-7, 48 h) is on record?
Answer: 1400 nM

Question: How did the EC50 (Hepatitis C virus, Huh-7, 48 h) turn out when `Cn1nc(C(=O)NC2CCN(CCO)CC2)c2ccc(N3CCCCCC3)nc21` [compound 1598] was run?
Answer: 2700 nM
